Data from US6355785B1, “Guanosine-rich oligonucleotide integrase inhibitors” (Aronex Pharmaceuticals, Inc., priority 1993, dated 2002).
Read-outs that look alike come from different tables or passages of the source.

Assays:
SIVMAC251 = type: cell-based, simian immunodeficiency virus; details: SIVMAC251, MT4; read-out: IC50 virus production
[1] = cynomolgus monkey, in vivo
[2] = target: T1, HIV-1 integrase catalytic core IN50-212 (Human immunodeficiency virus type 1 group M subtype B, UniProt P12497); assay: Disintegration assay, IN50-212; type: biochemical; details: IN50-212, 3 μM
T1 construct: purchased gift of Drs; T. Jenkins and R. Craigie, NIDDK, NIH (not bought)

[3] = target: T2, HIV-1 integrase deletion mutant IN50-288 (Human immunodeficiency virus type 1 group M subtype B, UniProt P12497); assay: Disintegration assay, IN50-288; type: biochemical; details: IN50-288, 3 μM
T2 construct: purchased gift of Drs; T. Jenkins and R. Craigie, NIDDK, NIH (not bought)

HIV-1RF = assay: HeLa-CD4-LTR-β-galactosidase cell virus infection assay; type: cell-based
[4] = parameters: species or system cynomolgus monkeys; details: cynomolgus monkey, in vivo
Method: Dosing. Twelve experimentally naive cynomolgus monkeys were assigned to four groups of three animals each. Prior to dosing, each animal was lightly sedated with a combination of ketamine (1 0 mg/kg) and diazepam (0.5 mg/kg), and a catheter was introduced into the femoral artery for recording central arterial pressure. Monkeys were given a single intravenous infusion of 5, 20, or 50 mg AR177/kg or saline over ten minutes through a cephalic vein catheter using a Harvard infusion pump. Arterial blood samples were drawn at −10, +10, +20, +40, +60 and +120 minutes relative to the initiation of infusion into EDTA-containing tubes for hematology, complement factors, coagulation assay, serum chemistry, and plasma AR177 determination. At 24 hours post-infusion, blood was drawn via the femoral vein into EDTA-containing tubes for these same parameters. The concentration of AR177 in dosing solutions was confirmed post experiment by absorbance at 280 nm on a spectrophotometer. For the determination of AR177 by HPLC, the plasma fraction was obtained by low speed centrifugation of blood, and stored at −20° C. until used. Electrocardiograms (ECGs), central pressure, and heart rate were recorded continuously for 120 minutes following the initiation of doing. Table E-1 summarizes the study design. […]
Complement factors. The complement split product Bb and total hemolytic complement CH50 were determined. […]

[5] = parameters: species or system cynomolgus monkeys; details: cynomolgus monkey, in vivo; for AR177 plasma (CMAX): iv
Method: Dosing. Twelve experimentally naive cynomolgus monkeys were assigned to four groups of three animals each. Prior to dosing, each animal was lightly sedated with a combination of ketamine (1 0 mg/kg) and diazepam (0.5 mg/kg), and a catheter was introduced into the femoral artery for recording central arterial pressure. Monkeys were given a single intravenous infusion of 5, 20, or 50 mg AR177/kg or saline over ten minutes through a cephalic vein catheter using a Harvard infusion pump. Arterial blood samples were drawn at −10, +10, +20, +40, +60 and +120 minutes relative to the initiation of infusion into EDTA-containing tubes for hematology, complement factors, coagulation assay, serum chemistry, and plasma AR177 determination. At 24 hours post-infusion, blood was drawn via the femoral vein into EDTA-containing tubes for these same parameters. The concentration of AR177 in dosing solutions was confirmed post experiment by absorbance at 280 nm on a spectrophotometer. For the determination of AR177 by HPLC, the plasma fraction was obtained by low speed centrifugation of blood, and stored at −20° C. until used. Electrocardiograms (ECGs), central pressure, and heart rate were recorded continuously for 120 minutes following the initiation of doing. Table E-1 summarizes the study design. The animals were observed twice daily pharmacotoxic signs and general health beginning two days before dosing and for seven days following dosing. The monkeys were not necropsied at the end of the study.
HPLC analysis of AR177 plasma concentration. AR177 was assayed in the plasma using an anion-exchange HPLC method on a Waters HPLC system with a 626 pump, 996 photodiode array detector, 717 autosampler and Millennium system software controlled by an NEC Image 466 computer. Buffer A consisted of 0.1 M Tris base, 20% methanol, pH 12, and Buffer B consisted of 0.1 M Tris base, 1.0 M NaBr, pH 12. The anion-exchange column (Gen-Pak Fax column) was equilibrated at 80% buffer A/20% buffer B for 30 minutes before each HPLC run. Fifty microliters of 0.2˜filtered, neat plasma were analyzed per run. The elusion conditions were: a) five-minute isoaatic run at 80% A/20% B. during which the majority of the plasma proteins eluted, b) 25-minute linear gradient to 30% A/70% B during which AR177 elutes, c) five-minute Socratic run at 30% A/70% B. d) one-minute linear gradient to 100% B. e) two-minute run at 100% B for column clean-up, and fl two-minute linear gradient to 70% A/30% B for the step in the HPLC clean-up. The high pH (12) of the elusion buffers was necessary to dissociate AR177 from tissue constituents, which bind AR177 tightly around physiological pH. AR177 is completely stable at pH 12. This method can clearly distinguish between the full length AR177 and n-1, n-2, etc. species, which are potential metabolic products. The ultraviolet detection wavelength was 260 nm. The flow rate was 0.5 mL/minute in all steps. Column clean up between runs was performed by a 500 pL bolus injection of 0.1 M Tris base, 2 M NaCl, pH 10.5, followed by: a) ten-minute linear gradient to 60% A/40% B. b) one-minute linear gradient to 100% B. c) a three-minute isocratic run at 100% B and d) one-minute linear gradient to 80% A/20% B.
A standard curve was generated by spiking AR177 into cynomolgus monkey plasma in order to achieve concentrations of 0.04 to 128 μ/mL. The plasma standards and unspiked plasma (control) were run on the anion-exchange HPLC column using e above conditions. The Waters Millennium software was used to determine the area under the peak for each AR177 standard at 260 nm. The HPLC peak area versus AR177 concentration was plotted using Cricket Graph III 1.5.1 software. There were one to three HPLC replicate runs per AR177 standard. The limit of quantitation was 25 ng/mL (50 pL injection), whereas the limit of detection was 5 ng/mL (50 pL injection). […]

Substance | IC50 (SIVMAC251) | histopathology of organs and tissues [1] | organ weight [1] | inhibition of disintegration [2] | inhibition of disintegration [3] | IC50 (HIV-1RF; HIV-1RF, read-out: IC50 β-galactosidase production, virus infection assay) | direct effect on β-galactosidase enzyme activity (HIV-1RF; up to 10 μM, control experiment) | CH50 levels [4] | change in CHX (CH50) levels [4] | initial plasma half-life [5] | initial volume of distribution (Vd) of the three doses [5] | metabolites in plasma [5] | terminal plasma half-life [5] | Vd ([5]; 5 mg/kg) | Vd ([5]; 20 mg/kg) | Vd ([5]; 50 mg/kg) | AR177 plasma (CMAX) ([5]; 5 mg/kg) | AR177 plasma (CMAX) ([5]; 20 mg/kg) | AR177 plasma (CMAX) ([5]; 50 mg/kg)
5′-gtggtgggtgggtgggt-3′ [T30177] (GTGGTGGGTGGGTGGGT; phosphorothioate termini, further chemistry not given here) | 1500 ± 1200 nM | No clearly treatment-related histopathologic changes | no effects on organ weight | – | – | – | – | – | – | – | – | – | – | – | – | – | – | – | –
5′-gtggtgggtgggtgggt-3′ (GTGGTGGGTGGGTGGGT; phosphorothioate termini, further chemistry not given here) [T30177, pPT version of parent compound I100-15, 17 mer] | – | – | – | ≤ 30% | ≤ 30% | 9 nM | no observable direct effect | small and transient decreases | −25% | 20 to 30 min | 200 to 248 mL | No metabolites | approximately 24 hours | 247.6 ± 21.4 mL | 184.5 ± 14.3 mL | 200.7 ± 56.4 mL | 83.2 ± 7.2 µg/mL | 397.8 ± 30.8 µg/mL | 804.7 ± 226.3 µg/mL
